# Legend:
# Format in all cases: cell-based, human
# [1] = system: NCI-H522; assay: NCI one-dose screening, non-small cell lung cancer NCI-H522; conditions: 10 μM
# [2] = system: IGROV1; assay: NCI one-dose screening, ovarian cancer IGROV1; conditions: 10 μM
# [3] = system: PC-3 prostate cancer cell line; assay: SRB assay cell viability, PC-3 prostate cancer cell line; conditions: Homo sapiens, PC-3 prostate cancer cell line, Table II prints no unit, μM printed, read-out: SRB assay: 50% inhibition of cancer cell proliferation of sample concentration (IC50) of PC-3 prostate cancer cell line
# [4] = system: TK-10; assay: NCI one-dose screening, renal cancer TK-10; conditions: 10 μM
# [5] = system: SNB-19; assay: NCI one-dose screening, CNS cancer SNB-19; conditions: 10 μM
# [6] = system: HT29; assay: NCI one-dose screening, colon cancer HT29; conditions: 10 μM
# [7] = system: U251; assay: NCI one-dose screening, CNS cancer U251; conditions: 10 μM
# [8] = system: HL-60, TB; assay: NCI one-dose screening, leukemia HL-60, TB; conditions: 10 μM
# [9] = system: OVCAR-8; assay: NCI one-dose screening, ovarian cancer OVCAR-8; conditions: 10 μM
# [10] = system: ACHN; assay: NCI one-dose screening, renal cancer ACHN; conditions: 10 μM
# [11] = system: NCI-H460; assay: NCI one-dose screening, non-small cell lung cancer NCI-H460; conditions: 10 μM
# [12] = system: A549/ATCC; assay: NCI one-dose screening, non-small cell lung cancer A549/ATCC; conditions: 10 μM
# [13] = system: HCT-15; assay: NCI one-dose screening, colon cancer HCT-15; conditions: 10 μM
# [14] = system: MOLT-4; assay: NCI one-dose screening, leukemia MOLT-4; conditions: 10 μM
# [15] = system: MALME-3M; assay: NCI one-dose screening, melanoma MALME-3M; conditions: 10 μM
# [16] = system: NCl/ADR-RES; assay: NCI one-dose screening, breast cancer NCl/ADR-RES; conditions: 10 μM; listed under Ovarian cancer
# [17] = system: SR; assay: NCI one-dose screening, leukemia SR; conditions: 10 μM
# [18] = system: KM12; assay: NCI one-dose screening, colon cancer KM12; conditions: 10 μM
# [19] = system: SK-MEL-2; assay: NCI one-dose screening, melanoma SK-MEL-2; conditions: 10 μM
# [20] = system: CCRF-CEM; assay: NCI screening platform one-dose single concentration screening, leukemia CCRF-CEM; conditions: 10 μM
# [21] = system: MDA, -MB-435; assay: NCI one-dose screening, breast cancer MDA, -MB-435; conditions: 10 μM; listed under Melanoma
# [22] = system: K562cell line; assay: NCI one-dose screening, leukemia K562; conditions: 10 μM
# [23] = system: SNB-75; assay: NCI one-dose screening, CNS cancer SNB-75; conditions: 10 μM
# [24] = system: EKVX; assay: NCI one-dose screening, non-small cell lung cancer EKVX; conditions: 10 μM
# [25] = system: 786-O; assay: NCI one-dose screening, renal cancer 786-O; conditions: 10 μM
# [26] = system: HCT-116; assay: NCI one-dose screening, colon cancer HCT-116; conditions: 10 μM
# [27] = system: PRMI-8226 cell line; assay: NCI one-dose screening, leukemia PRMI-8226; conditions: 10 μM
# [28] = system: RXF, 393; assay: NCI one-dose screening, renal cancer RXF, 393; conditions: 10 μM
# [29] = system: SN12C; assay: NCI one-dose screening, renal cancer SN12C; conditions: 10 μM
# [30] = system: M14; assay: NCI one-dose screening, melanoma M14; conditions: 10 μM
# [31] = system: OVCAR-3; assay: NCI one-dose screening, ovarian cancer OVCAR-3; conditions: 10 μM
# [32] = system: OVCAR-4; assay: NCI one-dose screening, ovarian cancer OVCAR-4; conditions: 10 μM
# [33] = system: OVCAR-5; assay: NCI one-dose screening, ovarian cancer OVCAR-5; conditions: 10 μM
# [34] = system: NCI-H322M; assay: NCI one-dose screening, non-small cell lung cancer NCI-H322M; conditions: 10 μM; Non-small cell lung cancer
# [35] = system: UACC-62; assay: NCI one-dose screening, melanoma UACC-62; conditions: 10 μM
# [36] = system: SF-539; assay: NCI one-dose screening, CNS cancer SF-539; conditions: 10 μM
# [37] = system: NCI-H23; assay: NCI one-dose screening, non-small cell lung cancer NCI-H23; conditions: 10 μM
# [38] = system: SK-MEL-5; assay: NCI one-dose screening, melanoma SK-MEL-5; conditions: 10 μM
# [39] = system: CAKI-1; assay: NCI one-dose screening, renal cancer CAKI-1; conditions: 10 μM
# [40] = system: HCC-2998; assay: NCI one-dose screening, colon cancer HCC-2998; conditions: 10 μM
# [41] = system: SF-295; assay: NCI one-dose screening, CNS cancer SF-295; conditions: 10 μM
# [42] = system: NCI-H226; assay: NCI one-dose screening, non-small cell lung cancer NCI-H226; conditions: 10 μM
# [43] = system: SF-268; assay: NCI one-dose screening, CNS cancer SF-268; conditions: 10 μM
# [44] = system: LOX IMVI; assay: NCI one-dose screening, melanoma LOX IMVI; conditions: 10 μM
# [45] = system: SK-MEL-28; assay: NCI one-dose screening, melanoma SK-MEL-28; conditions: 10 μM
# [46] = system: HOP-62; assay: NCI one-dose screening, non-small cell lung cancer HOP-62; conditions: 10 μM
# [47] = system: UACC-257; assay: NCI one-dose screening, melanoma UACC-257; conditions: 10 μM
# [48] = system: COLO 205; assay: NCI one-dose screening, colon cancer COLO 205; conditions: 10 μM
compound,measurement,setting,value
"CCSc1cc2c(c3nsnc13)C(=O)c1ccccc1C2=O [C16, 4-(ethylthio)anthra[2,1-c][1,2,5] thiadiazol-6,11-dione]",Growth Percent NCI-H522,[1],−88.01%
same,Growth Percent IGROV1,[2],−54.45%
same,IC50,[3],5.39 µM
same,Growth Percent TK-10,[4],103.17%
same,Growth Percent SNB-19,[5],83.19%
same,Growth Percent HT29,[6],77.39%
same,Growth Percent U251,[7],−73.58%
same,Growth Percent HL-60(TB),[8],−45.01%
same,Growth Percent OVCAR-8,[9],−79.84%
same,Growth Percent ACHN,[10],−44.97%
same,Growth Percent NCI-H460,[11],27.92%
same,Growth Percent A549/ATCC,[12],20.39%
same,Growth Percent HCT-15,[13],2.65%
same,Growth Percent MOLT-4,[14],−50.44%
same,Growth Percent MALME-3M,[15],−58.68%
same,Growth Percent NCI/ADR-RES,[16],−37.28%
same,Growth Percent SR,[17],−54.27%
same,Growth Percent KM12,[18],69.33%
same,Growth Percent SK-MEL-2,[19],−69.35%
same,Growth Percent CCRF-CEM,[20],−35.53%
same,Growth Percent MDA-MB-435,[21],−61.08%
same,Growth Percent K562,[22],−44.64%
same,Growth Percent SNB-75,[23],33.65%
same,Growth Percent EKVX,[24],56.13%
same,Growth Percent 786-0,[25],80.27%
same,Growth Percent HCT-116,[26],−82.82%
same,Growth Percent RPMI-8226,[27],−35.20%
same,Growth Percent RXF 393,[28],−62.42%
same,Growth Percent SN12C,[29],−61.79%
same,Growth Percent M14,[30],47.15%
same,Growth Percent OVCAR-3,[31],−76.39%
same,Growth Percent OVCAR-4,[32],−100.00%
same,Growth Percent OVCAR-5,[33],115.03%
same,Growth Percent NCI-H322M,[34],89.71%
same,Growth Percent UACC-62,[35],−38.24%
same,Growth Percent SF-539,[36],−22.78%
same,Growth Percent NCI-H23,[37],−25.43%
same,Growth Percent SK-MEL-5,[38],−94.86%
same,Growth Percent CAKI-1,[39],−1.76%
same,Growth Percent HCC-2998,[40],90.47%
same,Growth Percent SF-295,[41],79.94%
same,Growth Percent NCI-H226,[42],53.41%
same,Growth Percent SF-268,[43],−54.89%
same,Growth Percent LOX IMVI,[44],−91.42%
same,Growth Percent SK-MEL-28,[45],−41.99%
same,Growth Percent HOP-62,[46],2.44%
same,Growth Percent UACC-257,[47],−86.35%
same,Growth Percent COLO 205,[48],97.05%
"Cc1cccc(C)c1Sc1cc2c(c3nsnc13)C(=O)c1ccccc1C2=O [C55, 4-(2,6-dimethylphenylthio)anthra[2,1-c] [1,2,5]thiadiazol-6,11-dione]",Growth Percent NCI-H522,[1],61.39%
same,Growth Percent IGROV1,[2],66.38%
same,IC50,[3],6.74 µM
same,Growth Percent TK-10,[4],119.41%
same,Growth Percent SNB-19,[5],94.75%
same,Growth Percent HT29,[6],97.73%
same,Growth Percent U251,[7],53.94%
same,Growth Percent HL-60(TB),[8],47.83%
same,Growth Percent OVCAR-8,[9],58.98%
same,Growth Percent ACHN,[10],83.18%
same,Growth Percent NCI-H460,[11],87.37%
same,Growth Percent A549/ATCC,[12],90.16%
same,Growth Percent HCT-15,[13],47.54%
same,Growth Percent MOLT-4,[14],32.64%
same,Growth Percent MALME-3M,[15],73.72%
same,Growth Percent NCI/ADR-RES,[16],59.68%
same,Growth Percent SR,[17],35.52%
same,Growth Percent KM12,[18],95.96%
same,Growth Percent SK-MEL-2,[19],67.54%
same,Growth Percent CCRF-CEM,[20],34.84%
same,Growth Percent MDA-MB-435,[21],96.77%
same,Growth Percent K562,[22],43.14%
same,Growth Percent SNB-75,[23],69.38%
same,Growth Percent EKVX,[24],82.44%
same,Growth Percent 786-0,[25],115.19%
same,Growth Percent HCT-116,[26],64.99%
same,Growth Percent RPMI-8226,[27],55.63%
same,Growth Percent RXF 393,[28],76.16%
same,Growth Percent SN12C,[29],67.67%
same,Growth Percent M14,[30],121.55%
same,Growth Percent OVCAR-3,[31],1.00%
same,Growth Percent OVCAR-4,[32],4.00%
same,Growth Percent OVCAR-5,[33],113.96%
same,Growth Percent NCI-H322M,[34],83.83%
same,Growth Percent UACC-62,[35],91.72%
same,Growth Percent SF-539,[36],84.51%
same,Growth Percent NCI-H23,[37],67.37%
same,Growth Percent SK-MEL-5,[38],70.23%
same,Growth Percent CAKI-1,[39],61.03%
same,Growth Percent HCC-2998,[40],100.96%
same,Growth Percent SF-295,[41],91.11%
same,Growth Percent NCI-H226,[42],78.31%
same,Growth Percent SF-268,[43],79.48%
same,Growth Percent LOX IMVI,[44],44.61%
same,Growth Percent SK-MEL-28,[45],89.33%
same,Growth Percent HOP-62,[46],90.01%
same,Growth Percent UACC-257,[47],86.57%
same,Growth Percent COLO 205,[48],98.76%

# Reference: US8877748B2, “Heterocyclic fused anthraquinone derivatives, manufacturing method and pharmaceutical composition using thereof” (National Defense Medical Center, priority 2012, dated 2014)
